This is an account of results in ChEMBL document CHEMBL1201862, “PubChem BioAssay data set” (2004).

Calls of active or inactive are those of the source.

The EC50 is the concentration needed to bring the measured effect to its halfway point. One may read the CC50 as the concentration that lowers cell viability or growth by half. By AC50 is commonly meant the concentration giving half of the maximal activity seen. A word on the IC50: it is the concentration at which inhibition is half-maximal.

Series [1] deals with Voltage-dependent T-type calcium channel subunit alpha-1H (Homo sapiens, UniProt O95180). Kind of series: Cav3.2 T-type channel blockers, cell-based, SynthLib3 library, HEK293 Cav3.2, fluorescence (AID 493041). Format: functional.
For the next series, the system named is Vero. Put plainly: host cell cytotoxicity of antiviral hits, dose response, cytotoxicity control for West Nile virus antiviral project, secondary assay (AID 1650). In kind it is functional. To be noted: Chlorocebus sabaeus.
In series [2] the target is T1, Replicative DNA helicase DnaB (Mycobacterium tuberculosis, UniProt P9WMR3).
T1 sequence (P9WMR3 whole entry): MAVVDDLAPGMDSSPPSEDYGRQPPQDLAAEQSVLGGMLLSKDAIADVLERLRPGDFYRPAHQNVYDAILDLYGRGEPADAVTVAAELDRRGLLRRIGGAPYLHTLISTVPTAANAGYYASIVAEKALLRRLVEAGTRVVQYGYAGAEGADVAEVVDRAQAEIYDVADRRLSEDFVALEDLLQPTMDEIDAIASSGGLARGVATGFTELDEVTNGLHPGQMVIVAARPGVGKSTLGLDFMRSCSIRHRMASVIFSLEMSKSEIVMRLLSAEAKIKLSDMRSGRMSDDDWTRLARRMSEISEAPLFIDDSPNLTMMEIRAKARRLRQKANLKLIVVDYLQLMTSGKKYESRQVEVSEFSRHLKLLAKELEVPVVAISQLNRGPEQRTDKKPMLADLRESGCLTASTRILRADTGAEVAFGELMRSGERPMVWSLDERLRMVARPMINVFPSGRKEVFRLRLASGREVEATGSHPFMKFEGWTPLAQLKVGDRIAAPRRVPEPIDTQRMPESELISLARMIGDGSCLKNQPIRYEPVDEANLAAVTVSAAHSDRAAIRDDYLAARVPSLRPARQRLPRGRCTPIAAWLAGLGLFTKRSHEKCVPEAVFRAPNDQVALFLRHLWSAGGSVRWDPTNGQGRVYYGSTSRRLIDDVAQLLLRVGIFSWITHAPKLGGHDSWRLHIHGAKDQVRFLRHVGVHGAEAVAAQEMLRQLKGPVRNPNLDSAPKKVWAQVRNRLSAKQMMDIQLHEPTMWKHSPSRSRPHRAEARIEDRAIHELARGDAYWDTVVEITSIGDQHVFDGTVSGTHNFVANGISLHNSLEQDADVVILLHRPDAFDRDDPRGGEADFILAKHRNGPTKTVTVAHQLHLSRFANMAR
Put plainly: DnaB intein splicing inhibitors, dose response, biochemical, cell-free fluorescence (AID 449749). Format: functional.

The target in a further series is T2, Protein RecA (Mycobacterium tuberculosis, UniProt P9WHJ3).
T2 sequence (P9WHJ3 whole entry): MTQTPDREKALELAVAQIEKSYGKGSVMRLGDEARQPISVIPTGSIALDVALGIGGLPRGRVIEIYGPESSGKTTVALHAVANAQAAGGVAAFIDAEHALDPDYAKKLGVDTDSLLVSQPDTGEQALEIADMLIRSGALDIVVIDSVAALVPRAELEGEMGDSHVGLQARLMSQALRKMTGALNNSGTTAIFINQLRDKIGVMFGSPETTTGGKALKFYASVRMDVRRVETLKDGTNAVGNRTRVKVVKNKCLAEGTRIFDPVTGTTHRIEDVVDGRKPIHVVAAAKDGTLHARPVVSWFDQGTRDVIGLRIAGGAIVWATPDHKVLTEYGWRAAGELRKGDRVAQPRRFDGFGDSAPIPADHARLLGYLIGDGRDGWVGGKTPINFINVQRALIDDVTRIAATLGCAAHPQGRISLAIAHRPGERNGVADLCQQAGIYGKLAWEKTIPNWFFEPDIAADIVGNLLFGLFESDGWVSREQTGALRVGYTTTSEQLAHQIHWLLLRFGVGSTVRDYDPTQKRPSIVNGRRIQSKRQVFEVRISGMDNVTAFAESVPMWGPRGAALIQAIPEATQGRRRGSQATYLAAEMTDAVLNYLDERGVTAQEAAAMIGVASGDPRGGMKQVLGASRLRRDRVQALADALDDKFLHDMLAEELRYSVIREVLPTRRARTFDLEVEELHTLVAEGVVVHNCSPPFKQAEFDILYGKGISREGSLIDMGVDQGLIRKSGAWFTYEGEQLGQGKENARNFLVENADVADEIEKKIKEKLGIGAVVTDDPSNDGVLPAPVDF
Put plainly: Fluorescence Cell-Free Homogeneous Dose Retest to Identify Inhibitors of RecA-Intein Splicing Activity. [Related pubchem assays (depositor defined):AID2097, AID2223, AID489010, AID492950]. Format: functional.

The target in series [3] is T3, G-protein coupled receptor 55 (Homo sapiens, UniProt Q9Y2T6). Kind of series: GPR55 antagonists, SAR follow-up, counter-screen for GPR35 antagonist project, imaging, image-based (AID 2397). In kind it is functional.
Series [4] concerns the target T3, G-protein coupled receptor 55. Kind of series: SAR analysis of selective Agonists of GPR55 using an Image-Based Assay. [Related pubchem assays (depositor defined):AID1961, AID1965]. In kind it is functional.
Series [5] concerns the target T4, Cannabinoid receptor 2 (Homo sapiens, UniProt P34972). Put plainly: SAR analysis of antagonists of the Cannabinoid Receptor 2 using an Image-Based Assay - Set 2. [Related pubchem assays (depositor defined):AID1961, AID1965]. In kind it is functional.
A further series concerns the target Cannabinoid receptor 1 (Homo sapiens, UniProt P21554). Kind of series: SAR analysis of antagonists of the Cannabinoid Receptor 1 using an Image-Based Assay. [Related pubchem assays (depositor defined):AID1961, AID1965]. In kind it is functional.
The target of series [6] is T3, G-protein coupled receptor 55. Put plainly: GPR55 agonists via beta-arrestin recruitment, primary screen, imaging, U2OS cells, beta-arrestin-GFP redistribution (AID 1961). Format: functional. On the technique in general: Activated receptors often draw arrestin, which recruitment assays turn into a signal.
Series [7] has as its target T4, Cannabinoid receptor 2. Kind of series: SAR analysis of agonists of the Cannabinoid Receptor 2 using an Image-Based Assay - Set 2. [Related pubchem assays (depositor defined):AID1961, AID1965]. In kind it is functional.
Series [8] has as its target Glyceraldehyde-3-phosphate dehydrogenase (Homo sapiens, UniProt P04406).
The target of another series is Tumor necrosis factor (Homo sapiens, UniProt P01375). Put plainly: TNFa-triggered NF-kB activation inhibitors, SAR follow-up, cell-based, set 3 (AID 2801). Format: functional.
In series [9] the target is Nucleotide-binding oligomerization domain-containing protein 2 (Homo sapiens, UniProt Q9HC29). Kind of series: NOD2 signaling inhibitors, analog potency, SAR follow-up, cell-based, set 3 (AID 2799). In kind it is functional.
Series [10] concerns the target Nucleotide-binding oligomerization domain-containing protein 1 (Homo sapiens, UniProt Q9Y239). Kind of series: SAR analysis of compounds that inhibit NOD1 - Set 3. [Related pubchem assays (depositor defined):AID1566, AID1575, AID1578, AID1849, AID1852, AID2333, AID2335, AID2466]. Format: functional.
Series [11] deals with T5, Bcl-2-related protein A1 (Mus musculus, UniProt Q07440).
T5 sequence (Q07440 whole entry): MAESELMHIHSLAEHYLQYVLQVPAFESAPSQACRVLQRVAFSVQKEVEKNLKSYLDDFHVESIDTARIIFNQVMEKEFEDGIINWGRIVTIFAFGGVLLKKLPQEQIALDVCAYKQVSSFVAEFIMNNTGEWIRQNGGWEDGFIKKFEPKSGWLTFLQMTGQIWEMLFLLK
Put plainly: Bfl-1 binding inhibitors, SAR follow-up, biochemical, fluorescence polarization (AID 1070). (In general: In fluorescence polarisation assays a small probe gives low polarisation when free and higher when bound to something large.)

A further series relates to HEK293. Kind of series: SAR analysis of compounds that are cytotoxic to HEK293 - Set 3. [Related pubchem assays (depositor defined):AID1575, AID1578, AID1848, AID1849, AID2001, AID2333, AID2334, AID2335, AID2337, AID2469]. To be noted: Homo sapiens. Format: functional, cell-based.
Series [12] deals with T5, Bcl-2-related protein A1. Put plainly: Bfl-1 inhibitors blocking BH3 peptide binding, confirmation, biochemical, TR-FRET, mouse Bfl-1 (AID 621).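 Note: TR-FRET binding of GST-Bfl-1 to FITC-labelled Bid peptide via terbium antibody.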 On the technique in general: TR-FRET usually uses a lanthanide donor and a delayed reading to cut background.
The nature of series [13]: HEK293 cell cytotoxicity, dose response, cytotoxicity control, plate reader, cherry-picked samples (AID 743446). In kind it is functional, cell-based.
Series [14] can be described thus: MC4R antagonists, dose response, counter-screen for LGR2 antagonist project, cell-based, plate reader, cherry pick (AID 743444).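 Note: transfected HEK 293 cells stimulated with alpha-MSH peptide; potency of inhibitors of the alpha-MSH evoked signal.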 In kind it is functional.
The nature of series [15]: Late stage assay provider results from the probe development effort to identify inhibitors of Protein Phosphatase Methylesterase 1 (PME-1): luminescence-based […] dose response assay to determine cytotoxicity of inhibitor compounds. [Related pubchem assays (depositor defined):AID2130, AID2143, AID2171, AID2174, AID2177, AID2232, AID2233, AID2291, AID2363, AID2365, AID2366, AID2368, AID2369, AID2371, AID463124, AID463130, AID463131, AID463132, AID463146, AID463149] Panel member name: Serum-free Media. In kind it is toxicity.

A short description of series [16]: Late stage assay provider results from the probe development effort to identify inhibitors of Protein Phosphatase Methylesterase 1 (PME-1): luminescence-based biochemical dose response assay to determine cytotoxicity of inhibitor compounds. [Related pubchem assays (depositor defined):AID2130, AID2143, AID2171, AID2174, AID2177, AID2232, AID2233, AID2291, AID2363, AID2365, AID2366, AID2368, AID2369, AID2371, AID463124, AID463130, AID463131, AID463132, AID463146, AID463149] Panel member name: Fetal Calf Serum. In kind it is toxicity.

The nature of series [17]: HepG2 cell cytotoxicity, dose response, cytotoxicity control, plate reader, cherry-pick, antagonist series (AID 743416). Format: functional, cell-based.
Series [18] in a line: LGR2 antagonists, dose response, cell-based, HEK293, CRE-luciferase reporter, cherry pick, set 2 (AID 743343).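 Note: transfected cells were stimulated with diluted bursicon conditioned medium after compound addition.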 In kind it is functional.
The nature of series [19]: Luminescence Cell-Based Dose Retest to Confirm Inhibitors of Cancer Stem Cells. [Related pubchem assays (depositor defined):AID2717, AID2721]. In kind it is functional. To be noted: Homo sapiens.
Series [20] can be described thus: A549 cell cytotoxicity, dose response, cytotoxicity control, plate reader, cherry-pick, antagonist series (AID 743412). Format: functional, cell-based.

T3 sequence (Q9Y2T6 whole entry): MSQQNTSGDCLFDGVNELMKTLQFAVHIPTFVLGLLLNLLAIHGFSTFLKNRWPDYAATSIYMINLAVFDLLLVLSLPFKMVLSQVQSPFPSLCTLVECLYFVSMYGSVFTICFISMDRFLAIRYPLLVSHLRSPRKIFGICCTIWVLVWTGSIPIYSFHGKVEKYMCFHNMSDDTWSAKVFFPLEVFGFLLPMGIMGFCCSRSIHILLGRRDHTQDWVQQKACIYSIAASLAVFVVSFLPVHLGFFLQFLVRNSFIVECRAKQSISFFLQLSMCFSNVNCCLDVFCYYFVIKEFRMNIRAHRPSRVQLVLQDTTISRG
T4 sequence (P34972 whole entry): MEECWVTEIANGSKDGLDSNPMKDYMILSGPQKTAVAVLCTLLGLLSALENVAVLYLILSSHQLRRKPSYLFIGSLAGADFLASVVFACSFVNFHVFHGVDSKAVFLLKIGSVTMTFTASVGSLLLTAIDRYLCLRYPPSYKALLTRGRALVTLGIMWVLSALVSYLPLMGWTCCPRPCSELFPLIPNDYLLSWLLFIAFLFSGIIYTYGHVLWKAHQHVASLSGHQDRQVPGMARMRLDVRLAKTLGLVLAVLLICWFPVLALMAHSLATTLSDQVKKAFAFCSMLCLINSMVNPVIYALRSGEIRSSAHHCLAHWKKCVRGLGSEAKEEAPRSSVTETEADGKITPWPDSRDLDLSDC
Chain of Nucleotide-binding oligomerization domain-containing protein 2 (Q9HC29 whole entry, the tested form may be a part): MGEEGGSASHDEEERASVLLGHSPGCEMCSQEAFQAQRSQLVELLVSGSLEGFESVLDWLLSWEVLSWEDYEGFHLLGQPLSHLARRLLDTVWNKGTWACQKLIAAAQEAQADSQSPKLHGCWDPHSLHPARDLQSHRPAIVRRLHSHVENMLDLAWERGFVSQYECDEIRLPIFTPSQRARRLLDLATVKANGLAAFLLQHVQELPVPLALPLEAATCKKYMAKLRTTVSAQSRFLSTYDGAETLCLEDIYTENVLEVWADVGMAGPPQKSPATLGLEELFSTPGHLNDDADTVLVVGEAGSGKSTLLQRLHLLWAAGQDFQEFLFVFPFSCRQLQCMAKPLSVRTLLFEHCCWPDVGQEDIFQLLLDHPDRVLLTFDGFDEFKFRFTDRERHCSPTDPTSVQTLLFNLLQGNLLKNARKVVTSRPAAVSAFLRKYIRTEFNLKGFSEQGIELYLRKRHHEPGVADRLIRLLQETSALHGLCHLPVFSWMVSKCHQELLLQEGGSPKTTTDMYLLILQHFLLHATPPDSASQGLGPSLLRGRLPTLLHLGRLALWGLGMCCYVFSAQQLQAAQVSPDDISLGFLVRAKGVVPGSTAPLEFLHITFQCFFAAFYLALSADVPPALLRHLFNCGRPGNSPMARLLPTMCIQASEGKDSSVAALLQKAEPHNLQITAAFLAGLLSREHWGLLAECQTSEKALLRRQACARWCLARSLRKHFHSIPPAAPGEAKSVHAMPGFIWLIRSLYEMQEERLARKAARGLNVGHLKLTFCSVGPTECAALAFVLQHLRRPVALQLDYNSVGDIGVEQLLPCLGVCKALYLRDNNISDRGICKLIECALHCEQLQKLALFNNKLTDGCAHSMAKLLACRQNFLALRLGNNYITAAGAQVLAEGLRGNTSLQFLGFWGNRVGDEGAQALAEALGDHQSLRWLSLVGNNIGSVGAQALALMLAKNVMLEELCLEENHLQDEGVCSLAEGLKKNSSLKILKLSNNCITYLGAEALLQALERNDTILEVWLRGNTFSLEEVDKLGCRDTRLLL
Chain of Tumor necrosis factor (P01375 whole entry, the tested form may be a part): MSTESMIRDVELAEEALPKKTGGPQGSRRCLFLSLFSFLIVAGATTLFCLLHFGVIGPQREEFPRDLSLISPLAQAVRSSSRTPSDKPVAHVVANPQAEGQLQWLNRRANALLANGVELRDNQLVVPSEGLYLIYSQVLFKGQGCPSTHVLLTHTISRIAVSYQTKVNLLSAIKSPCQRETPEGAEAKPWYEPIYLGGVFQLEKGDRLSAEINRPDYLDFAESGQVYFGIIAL
Chain of Nucleotide-binding oligomerization domain-containing protein 1 (Q9Y239 whole entry, the tested form may be a part): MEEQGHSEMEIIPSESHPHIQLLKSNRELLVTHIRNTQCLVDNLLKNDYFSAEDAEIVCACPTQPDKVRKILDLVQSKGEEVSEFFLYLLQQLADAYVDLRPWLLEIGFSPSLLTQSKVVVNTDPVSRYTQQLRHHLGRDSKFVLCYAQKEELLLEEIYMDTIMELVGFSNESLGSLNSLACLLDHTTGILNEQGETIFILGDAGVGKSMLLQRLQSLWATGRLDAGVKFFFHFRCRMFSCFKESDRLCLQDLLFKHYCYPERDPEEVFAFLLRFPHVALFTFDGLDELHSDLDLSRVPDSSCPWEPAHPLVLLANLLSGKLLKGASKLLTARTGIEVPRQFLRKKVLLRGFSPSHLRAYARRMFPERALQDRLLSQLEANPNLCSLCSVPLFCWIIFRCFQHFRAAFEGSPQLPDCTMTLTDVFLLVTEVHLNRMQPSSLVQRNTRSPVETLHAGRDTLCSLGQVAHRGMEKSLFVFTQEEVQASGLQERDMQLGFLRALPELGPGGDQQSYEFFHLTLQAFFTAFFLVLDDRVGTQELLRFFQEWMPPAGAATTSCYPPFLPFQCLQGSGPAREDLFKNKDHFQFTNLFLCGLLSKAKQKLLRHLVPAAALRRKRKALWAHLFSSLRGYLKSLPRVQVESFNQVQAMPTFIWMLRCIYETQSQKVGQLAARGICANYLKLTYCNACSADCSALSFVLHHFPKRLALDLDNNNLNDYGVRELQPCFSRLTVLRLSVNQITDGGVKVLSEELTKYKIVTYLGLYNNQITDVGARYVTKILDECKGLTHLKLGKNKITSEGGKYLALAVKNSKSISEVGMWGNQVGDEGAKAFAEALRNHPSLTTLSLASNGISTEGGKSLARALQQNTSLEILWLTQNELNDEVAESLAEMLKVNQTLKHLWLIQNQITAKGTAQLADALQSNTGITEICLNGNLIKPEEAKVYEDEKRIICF
Chain of Cannabinoid receptor 1 (P21554 whole entry): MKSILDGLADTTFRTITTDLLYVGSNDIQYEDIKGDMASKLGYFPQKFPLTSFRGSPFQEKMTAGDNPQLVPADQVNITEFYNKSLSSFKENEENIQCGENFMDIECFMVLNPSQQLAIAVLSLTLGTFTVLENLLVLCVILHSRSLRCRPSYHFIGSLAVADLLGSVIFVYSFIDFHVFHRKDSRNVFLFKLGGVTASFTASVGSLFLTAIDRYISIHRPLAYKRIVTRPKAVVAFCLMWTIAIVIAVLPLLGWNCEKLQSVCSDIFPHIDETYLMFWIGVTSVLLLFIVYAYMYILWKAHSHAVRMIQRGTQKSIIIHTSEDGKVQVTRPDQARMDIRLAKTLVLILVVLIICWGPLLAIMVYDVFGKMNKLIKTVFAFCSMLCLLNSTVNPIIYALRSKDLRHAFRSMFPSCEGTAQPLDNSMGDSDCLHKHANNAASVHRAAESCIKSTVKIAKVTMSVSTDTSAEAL
Chain of Glyceraldehyde-3-phosphate dehydrogenase (P04406 whole entry): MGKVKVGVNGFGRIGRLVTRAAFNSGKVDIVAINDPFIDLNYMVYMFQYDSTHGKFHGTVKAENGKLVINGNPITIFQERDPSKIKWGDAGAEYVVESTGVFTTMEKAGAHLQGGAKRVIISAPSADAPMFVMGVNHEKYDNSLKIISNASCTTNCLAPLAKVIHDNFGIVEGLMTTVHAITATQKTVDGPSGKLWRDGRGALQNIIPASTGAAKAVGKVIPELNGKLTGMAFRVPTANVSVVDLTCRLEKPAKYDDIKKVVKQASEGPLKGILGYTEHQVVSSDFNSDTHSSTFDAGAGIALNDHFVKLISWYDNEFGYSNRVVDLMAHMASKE

For the compound `CC(C)CCc1nnc(NC(=O)COc2ccc(F)cc2Cl)o1`, the EC50 in series [1] was 10 µM (active).

As to `O=C(CCCN1C(=O)/C(=C/c2ccccc2)SC1=S)Nc1ccc(O)cc1`, in the series on Vero, the 50% cytotoxic concentration (CC50) is 60 µM (active). Further, the concentration at half-maximal activity (AC50) in [2] is 12 µM (active). Moreover, on Protein RecA, the EC50 is > 380 µM (inactive). Further, the IC50 in series [3] is > 32 µM (inactive).

`CC(Sc1nc2cc(Cl)ccc2s1)C(=O)Nc1cccc(S(=O)(=O)N2CCOCC2)c1` (configuration not stated): the EC50 in series [4] was 0.761 µM (active); in series [6] it was 0.961 µM (active); at Cannabinoid receptor 2 [7], > 32 µM (inactive). In addition, the IC50 on Cannabinoid receptor 2 [5] and on Cannabinoid receptor 1 was > 32 µM (inactive) each time.

As for `COc1ccc(-c2cc(N)n(S(=O)(=O)c3ccc(F)cc3)n2)cc1OC`, the IC50 in series [8] is > 100 µM (not active); at Tumor necrosis factor it was > 20 µM (inactive); in series [9] it was > 20 µM (inactive); in [10], > 20 µM (inactive); on Bcl-2-related protein A1 [11], > 100 µM (not active); with HEK293, > 20 µM (inactive). For the same compound, the IC50 at Bcl-2-related protein A1 [12] is given as > 100 µM (not active).

Turning to `CCOC(=O)N1C(=O)[C@@](c2ccc(Cl)cc2)(C(C)C)N1C(=O)OCC`, the half-maximal activity concentration (AC50) in series [13] is 49.1 µM (active); in series [14], 26.6 µM (active); in [2], 7.28 µM (active); in [17] it was 40.9 µM (active); in series [18], 17.3 µM (active); in series [19], 3.99 µM (active). Moreover, the half-maximal activity concentration (AC50) in series [20] is 22.4 µM (active). Also, the CC50 in series [15] and in series [16] was > 10 µM (inactive) throughout. Moreover, on Protein RecA, the EC50 is 16.2 µM (active).
